Columns and labels:
[1] = tested on: high fat diet (HFD) induced non-alcoholic fatty liver mice; assay: High fat diet induced non-alcoholic fatty liver mice model (Example 5); type: in vivo, NIH male mice; details: for Body weight / Weight ratio of liver / ALT / AST / HDL-C / LDL-C / MDA / SOD / TC / TG: i.g. once daily, HFD, mean ± S.E.M; for ALT / AST / HDL-C / LDL-C / MDA / SOD / TC / TG: serum
Excerpt: This example describes an in vivo efficacy study of BUDCA disclosed in the present invention using a high fat diet (HFD) induced non-alcoholic fatty liver mice model.
91 NIH male mice of 4 weeks old were obtained from Vital River Laboratories (Beijing, China). After acclimatization for one week, 13 mice were selected as control group (Group 1, G1) with normal chow diet fed, and the other 78 mice were fed with HFD (in which 40% of calories is from fat) for 4 weeks to establish an animal model resembling the pathophysiology of non-alcoholic fatty liver in human.
Following 4 weeks of high fat dietary intervention, the 78 mice were divided into 6 groups according to body weight (n=13 per group): • Group 2, G2: Vehicle control (0.5% CMC-Na solution) • Group 3, G3: Low-dose group of BUDCA (30 mg/kg) • Group 4, G4: Middle-dose group of BUDCA (100 mg/kg) • Group 5, G5: High-dose group of BUDCA (300 mg/kg) • Group 6, G6: BBR control group (Berberine HCl, 150 mg/Kg) • Group 7, G7: UDCA control group (Ursodeoxycholic acid, 150 mg/Kg)
The mice from G2 to G7 were administered with the corresponding testing articles indicated above once daily by intragastric gavage. HFD continued throughout the duration of the treatment of 6 weeks. The normal mice (G1) were treated with vehicle (0.5% CMC-Na solution) via intragastric gavage. At the end of experiment, the following biochemical parameters were measured and tests were carried out: • Body weight, the weight ratio of liver • Total cholesterol (TC) and triglyceride (TG) levels, high density lipoprotein cholesterol (HDL-C) and low density lipoprotein cholesterol (LDL-C) levels • Alanine aminotransferase (ALT) and aspartate aminotransferase (AST) levels • Superoxide dismutase (SOD) activity and malondialdehyde (MDA) level • Oral glucose tolerance test (OGTT) • Histopathological examination of liver ([…] staining)
After 6 weeks treatment, blood was collected via retro-orbital bleeding of each 12-hour fasted animal. Liver was harvested by surgery for histopathology analysis after weight measurement. Then the serum was isolated for the determination of TC, TG, HDL-C, LDL-C, ALT, AST, SOD and MDA.
One week before sacrifice (Week 5 of treatment), an oral glucose tolerance test (OGTT) was performed in 12-hour fasted animals. For the OGTT, all mice received an oral glucose challenge at 2.0 g/Kg and the blood glucose concentrations were determined by glucometer (ACCU-CHEK Active, Roche) at 0, 30, 60, 90 and 120 min.
The liver tissue was histopathologically evaluated by […] staining after frozen section.

[2] = tested on: high fat diet (HFD) induced fatty liver golden hamster; assay: High fat diet-induced fatty liver golden hamster model (Example 6); type: in vivo, golden hamsters; details: for Serum TC level on Day 0 / Serum TG level on Day 0: Day 0 (before treatment); for Serum TC level on Day 0 / Serum TG level on Day 0 / Serum TC level, Week 1 / Serum TG level, Week 1 / Serum TC level, Week 3 / Serum TG level, Week 3 / Serum TC level, Week 5 / Serum TG level, Week 5 / Serum TC level, Week 7 / Serum TG level, Week 7: X ± s, n = 8
Excerpt: This example describes an in vivo efficacy study of BUDCA salt disclosed in the present invention using a high fat diet (HFD) induced fatty liver golden hamster model.
Forty-two SPF golden hamsters with the body weight of 90-100 g were acquired from Vital River Laboratory Animal Technology Co., Ltd. After acclimatization for one week, eight hamsters were selected as normal control group (Group 1), which were fed with normal chow diet. The rest thirty-four hamsters were fed with HFD for two weeks to establish a fatty liver animal model resembling the pathophysiology of NAFLD in human.
For the thirty-four hamsters induced with HFD, twenty-four of them with TC level of 17.96±1.70 mmol/L at the fourteenth day post of HFD were selected and randomized into three groups (n=8 per group): • Group 2: Model control (0.5% tragacanth solution 10 ml/kg); • Group 3: Low-dose (BUDCA 50 mg/kg); • Group 4: High-dose (BUDCA 200 mg/kg)
The hamsters from Group 2 to 4 were treated with corresponding testing articles indicated above once a day by intragastric gavage, and HFD continued throughout the duration of the 7-week administration. The normal hamsters in Group 1 were treated with 0.5% tragacanth solution (10 ml/kg) by intragastric gavage. Serum lipid and blood glucose level, liver function index, food intake and body weight were measured throughout the study. After the 7-week administration, the hamsters were sacrificed and dissected for the general observation and histopathological analysis of liver tissue.

[3] = BUDCA 50 mg/kg i.g. once a day, Week 1
[4] = BUDCA 200 mg/kg i.g. once a day, Week 1
[5] = BUDCA 200 mg/kg i.g. once a day
[6] = both high-dose and low-dose group, P<0.01, FIG. 16
[7] = both medicated groups, P<0.01, FIG. 22

SMILES: COc1ccc2cc3[n+](cc2c1OC)CCc1cc2c(cc1-3)OCO2.C[C@H](CCC(=O)[O-])[C@H]1CC[C@H]2[C@@H]3[C@@H](O)C[C@@H]4C[C@H](O)CC[C@]4(C)[C@H]3CC[C@]12C [BUDCA, berberine ursodeoxycholate]
- Body weight ([1]; BUDCA 30 mg/kg (G3), 6 weeks): 40.3 ± 1.18 g
- Weight ratio of liver ([1]; BUDCA 30 mg/kg (G3), 6 weeks): 4.33 ± 0.13%
- Body weight ([1]; BUDCA 100 mg/kg (G4), 6 weeks): 41.7 ± 1.59 g
- Weight ratio of liver ([1]; BUDCA 100 mg/kg (G4), 6 weeks): 4.15 ± 0.09%
- Body weight ([1]; BUDCA 300 mg/kg (G5), 6 weeks): 41.5 ± 1.16 g
- Weight ratio of liver ([1]; BUDCA 300 mg/kg (G5), 6 weeks): 4.27 ± 0.10%
- Effect on symptoms of non-alcoholic fatty liver (overall efficacy) ([1]; BUDCA 30-300 mg/kg, berberine or ursodeoxycholic acid monotherapy 150 mg/Kg, 6 weeks): dose-dependently ameliorated symptoms of non-alcoholic fatty liver
- Gastrointestinal side effects at the time of sacrifice ([1]; BUDCA treated animals, 6 weeks i.g.): no gastrointestinal side effects were observed
- ALT ([1]; BUDCA 30 mg/kg (G3), 6 weeks): 30.6 ± 4.37 U/L
- AST ([1]; BUDCA 30 mg/kg (G3), 6 weeks): 148.3 ± 7.15 U/L
- HDL-C ([1]; BUDCA 30 mg/kg (G3), 6 weeks): 2.33 ± 0.15 mmol/L
- LDL-C ([1]; BUDCA 30 mg/kg (G3), 6 weeks): 1.05 ± 0.09 mmol/L
- MDA ([1]; BUDCA 30 mg/kg (G3), 6 weeks): 12.34 ± 2.89
- SOD ([1]; BUDCA 30 mg/kg (G3), 6 weeks): 61.05 ± 11.59 U/mL
- TC ([1]; BUDCA 30 mg/kg (G3), 6 weeks): 5.49 ± 0.25 mmol/L
- TG ([1]; BUDCA 30 mg/kg (G3), 6 weeks): 1.18 ± 0.20 mmol/L
- ALT ([1]; BUDCA 100 mg/kg (G4), 6 weeks): 29.0 ± 3.95 U/L
- AST ([1]; BUDCA 100 mg/kg (G4), 6 weeks): 140.2 ± 16.32 U/L
- HDL-C ([1]; BUDCA 100 mg/kg (G4), 6 weeks): 2.26 ± 0.22 mmol/L
- LDL-C ([1]; BUDCA 100 mg/kg (G4), 6 weeks): 1.06 ± 0.11 mmol/L
- MDA ([1]; BUDCA 100 mg/kg (G4), 6 weeks): 8.02 ± 1.08 µM
- SOD ([1]; BUDCA 100 mg/kg (G4), 6 weeks): 91.83 ± 4.90 U/mL
- TC ([1]; BUDCA 100 mg/kg (G4), 6 weeks): 5.28 ± 0.50 mmol/L
- TG ([1]; BUDCA 100 mg/kg (G4), 6 weeks): 0.92 ± 0.06 mmol/L
- ALT ([1]; BUDCA 300 mg/kg (G5), 6 weeks): 27.8 ± 3.08 U/L
- AST ([1]; BUDCA 300 mg/kg (G5), 6 weeks): 163.5 ± 11.63 U/L
- HDL-C ([1]; BUDCA 300 mg/kg (G5), 6 weeks): 2.48 ± 0.15 mmol/L
- LDL-C ([1]; BUDCA 300 mg/kg (G5), 6 weeks): 1.03 ± 0.22 mmol/L
- MDA ([1]; BUDCA 300 mg/kg (G5), 6 weeks): 7.78 ± 1.66 µM
- SOD ([1]; BUDCA 300 mg/kg (G5), 6 weeks): 97.54 ± 4.88 U/mL
- TC ([1]; BUDCA 300 mg/kg (G5), 6 weeks): 5.95 ± 0.54 mmol/L
- TG ([1]; BUDCA 300 mg/kg (G5), 6 weeks): 0.85 ± 0.06 mmol/L
- Dose dependence of the effects ([2]; 50 vs 200 mg/kg, 7 weeks): relatively dose-dependent
- Serum TC level on Day 0 ([2]; BUDCA 50 mg/kg group): 18.14 ± 1.13 mmol/L
- Serum TG level on Day 0 ([2]; BUDCA 50 mg/kg group): 5.97 ± 1.19 mmol/L
- Serum TC level, Week 1 [2, 3]: 9.33 ± 1.52 mmol/L
- Serum TG level, Week 1 [2, 3]: 3.60 ± 0.78 mmol/L
- Serum TC level, Week 3 ([2]; BUDCA 50 mg/kg i.g. once a day): 7.58 ± 2.01 mmol/L
- Serum TG level, Week 3 ([2]; BUDCA 50 mg/kg i.g. once a day): 2.98 ± 1.31 mmol/L
- Serum TC level, Week 5 ([2]; BUDCA 50 mg/kg i.g. once a day): 10.50 ± 2.89 mmol/L
- Serum TG level, Week 5 ([2]; BUDCA 50 mg/kg i.g. once a day): 4.51 ± 3.10 mmol/L
- Serum TC level, Week 7 ([2]; BUDCA 50 mg/kg i.g. once a day): 9.78 ± 2.58 mmol/L
- Serum TG level, Week 7 ([2]; BUDCA 50 mg/kg i.g. once a day): 3.88 ± 1.21 mmol/L
- Serum TC level on Day 0 ([2]; BUDCA 200 mg/kg group): 18.18 ± 1.10 mmol/L
- Serum TG level on Day 0 ([2]; BUDCA 200 mg/kg group): 6.31 ± 1.75 mmol/L
- Serum TC level, Week 1 [2, 4]: 7.51 ± 0.71 mmol/L
- Serum TG level, Week 1 [2, 4]: 3.00 ± 0.67 mmol/L
- Serum TC level, Week 3 [2, 5]: 6.75 ± 1.00 mmol/L
- Serum TG level, Week 3 [2, 5]: 2.68 ± 1.09 mmol/L
- Serum TC level, Week 5 [2, 5]: 5.38 ± 1.24 mmol/L
- Serum TG level, Week 5 [2, 5]: 3.04 ± 1.68 mmol/L
- Serum TC level, Week 7 [2, 5]: 4.95 ± 0.84 mmol/L
- Serum TG level, Week 7 [2, 5]: 1.90 ± 0.66 mmol/L
- AI value (arterial stiffness index) vs model control group [2, 6]: significantly decreased
- Serum LDL-c level vs model control group [2, 6]: significantly decreased
- Value of TC/HDL-c vs model control group [2, 6]: significantly decreased
- TC level vs model control group ([2]; both low-dose (50 mg/kg) and high-dose (200 mg/kg) group, P<0.01): significantly declined
- Food intake vs model control group ([2]; both medicated groups (50 and 200 mg/kg), P>0.05): no significant difference on food intake
- Serum AST level vs model control group ([2]; both medicated groups, after 7-week administration, P<0.01, FIG. 17): significantly declined
- Serum ALT level vs model control group ([2]; both medicated groups, after 7-week administration, P<0.01, FIG. 18): significantly declined
- Color of livers vs model control group ([2]; both medicated groups, FIG. 20): improved
- Liver weight vs model control group ([2]; both medicated groups, P<0.01, FIG. 19): significantly decreased
- Content of TC and TG in liver vs model control group ([2]; both medicated groups, P<0.01, FIG. 21): significantly decreased
- Inflammation score of liver tissue vs model control group [2, 7]: significantly decreased
- Positive area for oil red vs model control group [2, 7]: significantly decreased
- TG level vs model control group, Week 1 and Week 7 ([2]; high-dose group (200 mg/kg), Week 1 and Week 7, P<0.01): significantly declined
- Serum LDL-c level, value of TC/HDL-c and AI value compared with normal control group ([2]; high-dose group (200 mg/kg), after 7-week administration): very similar to those of normal control group
- HDL-c level vs model control group ([2]; high-dose group (200 mg/kg), P<0.01): significantly declined
- Body weight, first week of treatment ([2]; high-dose group (200 mg/kg), P<0.05): significantly reduced in the first week of treatment
- Body weight, rest time of treatment ([2]; high-dose group (200 mg/kg), P>0.05): no significant changes were observed in the rest time of treatment
- Color of livers ([2]; high-dose group (200 mg/kg), similar to normal control group): ruddy
- Body weight vs model control group ([2]; low-dose and high-dose group, at sacrifice, P>0.05): no significant change observed
- TG level vs model control group, Week 1 ([2]; low-dose group (50 mg/kg), Week 1, P<0.01): significantly declined
- Body weight throughout the study ([2]; low-dose group (50 mg/kg), P>0.05): No significant changes were observed

Reference: US11976063B2, “Pharmaceutical composition comprising berberine and ursodeoxycholic acid for the treatment of various diseases or disorders” (priority 2014, dated 2024)
